Source: paper PMC3980023 (Cancer discovery, 2014)

Target: T1, IKKε (Homo sapiens, UniProt Q14164)
T1 sequence (Q14164 1-716): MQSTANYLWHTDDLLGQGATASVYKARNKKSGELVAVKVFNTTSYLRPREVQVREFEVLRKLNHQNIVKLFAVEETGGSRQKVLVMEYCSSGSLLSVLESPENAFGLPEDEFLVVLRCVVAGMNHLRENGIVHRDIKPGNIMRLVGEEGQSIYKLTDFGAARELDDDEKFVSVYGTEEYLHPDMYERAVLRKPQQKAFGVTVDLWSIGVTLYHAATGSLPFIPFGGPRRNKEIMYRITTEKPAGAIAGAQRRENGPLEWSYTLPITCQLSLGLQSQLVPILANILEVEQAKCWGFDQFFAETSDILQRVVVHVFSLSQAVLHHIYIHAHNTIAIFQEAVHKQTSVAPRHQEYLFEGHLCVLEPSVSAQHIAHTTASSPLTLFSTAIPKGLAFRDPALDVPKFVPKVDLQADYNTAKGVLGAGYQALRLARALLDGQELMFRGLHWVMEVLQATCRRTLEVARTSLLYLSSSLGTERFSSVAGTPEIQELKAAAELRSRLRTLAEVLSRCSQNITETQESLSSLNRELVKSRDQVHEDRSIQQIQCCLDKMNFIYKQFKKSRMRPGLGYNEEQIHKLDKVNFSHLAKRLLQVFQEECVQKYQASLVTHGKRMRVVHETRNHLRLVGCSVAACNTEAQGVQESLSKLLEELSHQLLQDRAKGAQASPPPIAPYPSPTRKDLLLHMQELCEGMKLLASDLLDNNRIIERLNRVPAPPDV
Format: biochemical

IC50: 42 nM
SMILES: N#CCNC(=O)c1ccc(-c2ccnc(Nc3ccc(N4CCOCC4)cc3)n2)cc1 [CYT387]
